Laboratory results as given in patent US9334290B2, “Substituted tetrahydrocarbazole and carbazole carboxamide compounds” (Bristol-Myers Squibb Company, priority 2013, dated 2016).
Like-named read-outs stand apart in the source and are kept apart here.

Key:
human recombinant Btk = human recombinant Btk (Homo sapiens (Human), UniProt Q06187); assay: Human Recombinant Btk enzyme assay; type: biochemical
[1] = system: CD69 expression on B cells in human whole blood; assay: Whole blood assay of BCR-stimulated CD69 expression on B cells; type: cell-based; conditions: BCR-stimulated, read-out: CD69 IC50 values
Jak2 tyrosine kinase = Jak2 tyrosine kinase (Homo sapiens (Human), UniProt O60674); assay: Jak2 tyrosine kinase assay; type: biochemical
Chain of Jak2 tyrosine kinase (O60674 whole entry): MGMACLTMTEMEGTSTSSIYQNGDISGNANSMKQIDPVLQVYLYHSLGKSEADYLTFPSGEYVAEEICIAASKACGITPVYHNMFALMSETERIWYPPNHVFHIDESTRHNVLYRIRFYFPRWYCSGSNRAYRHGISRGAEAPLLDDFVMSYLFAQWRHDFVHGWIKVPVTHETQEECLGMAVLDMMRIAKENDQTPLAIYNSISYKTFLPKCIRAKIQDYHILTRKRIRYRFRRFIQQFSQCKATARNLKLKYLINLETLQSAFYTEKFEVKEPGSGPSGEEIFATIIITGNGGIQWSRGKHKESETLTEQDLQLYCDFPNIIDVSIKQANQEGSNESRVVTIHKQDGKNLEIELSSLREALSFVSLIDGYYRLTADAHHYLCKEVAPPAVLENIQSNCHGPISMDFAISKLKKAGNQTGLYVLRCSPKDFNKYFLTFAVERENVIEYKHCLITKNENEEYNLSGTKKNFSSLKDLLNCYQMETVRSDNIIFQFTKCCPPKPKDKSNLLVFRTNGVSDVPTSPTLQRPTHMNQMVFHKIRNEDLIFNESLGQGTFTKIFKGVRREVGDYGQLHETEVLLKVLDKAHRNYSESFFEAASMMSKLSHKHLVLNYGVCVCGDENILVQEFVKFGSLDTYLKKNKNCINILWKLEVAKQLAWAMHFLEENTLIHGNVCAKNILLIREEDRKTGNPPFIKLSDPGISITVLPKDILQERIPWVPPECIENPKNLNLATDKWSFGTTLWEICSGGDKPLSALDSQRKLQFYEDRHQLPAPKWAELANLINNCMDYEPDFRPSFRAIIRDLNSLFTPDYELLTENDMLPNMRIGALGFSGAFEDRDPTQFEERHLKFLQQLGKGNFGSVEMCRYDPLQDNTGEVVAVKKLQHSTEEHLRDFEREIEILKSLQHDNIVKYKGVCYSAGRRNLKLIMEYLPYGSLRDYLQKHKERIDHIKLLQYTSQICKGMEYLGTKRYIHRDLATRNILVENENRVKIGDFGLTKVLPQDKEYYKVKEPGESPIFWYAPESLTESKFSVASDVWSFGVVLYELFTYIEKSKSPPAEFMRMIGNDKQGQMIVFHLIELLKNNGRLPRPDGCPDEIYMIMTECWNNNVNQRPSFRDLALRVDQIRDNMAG

Chain of human recombinant Btk (Q06187 whole entry): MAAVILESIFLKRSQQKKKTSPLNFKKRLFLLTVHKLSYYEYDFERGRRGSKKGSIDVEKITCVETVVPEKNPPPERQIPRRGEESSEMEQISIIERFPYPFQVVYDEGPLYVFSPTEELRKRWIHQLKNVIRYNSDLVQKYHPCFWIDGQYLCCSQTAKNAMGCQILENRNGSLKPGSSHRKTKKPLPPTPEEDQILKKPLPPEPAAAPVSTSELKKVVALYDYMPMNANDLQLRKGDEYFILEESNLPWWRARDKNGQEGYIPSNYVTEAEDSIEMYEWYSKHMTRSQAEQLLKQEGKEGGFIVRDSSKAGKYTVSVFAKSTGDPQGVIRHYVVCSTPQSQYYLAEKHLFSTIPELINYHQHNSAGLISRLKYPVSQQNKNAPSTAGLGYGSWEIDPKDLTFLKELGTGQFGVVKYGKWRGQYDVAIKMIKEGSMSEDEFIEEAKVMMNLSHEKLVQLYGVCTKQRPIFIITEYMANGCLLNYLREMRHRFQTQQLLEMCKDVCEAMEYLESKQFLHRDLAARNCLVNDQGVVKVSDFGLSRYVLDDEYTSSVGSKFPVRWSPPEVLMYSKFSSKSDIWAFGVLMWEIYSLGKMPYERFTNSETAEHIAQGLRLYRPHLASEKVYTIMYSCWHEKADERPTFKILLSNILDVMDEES

| SMILES | IC50 (human recombinant Btk; read-out: Btk IC50 value) | IC50 ([1]; Homo sapiens, B-cell) | IC50 (Jak2 tyrosine kinase) | IC50 [1] | Ratio of Jak2/Btk IC50 values (Jak2 tyrosine kinase; selectivity of Btk over Jak2) | Ratio of Jak2/Btk IC50 values (Jak2 tyrosine kinase; Jak2 IC50 divided by Btk IC50, larger value = more selective for Btk) | IC50 (human recombinant Btk; human recombinant Btk 1 nM, ATP 20 μM, read-out: Btk IC50) |
| --- | --- | --- | --- | --- | --- | --- | --- |
| Cc1c(-c2c(F)cc(C(N)=O)c3[nH]c4cc(C(C)(C)O)ccc4c23)cccc1-n1c(=O)cc2c(Cl)cccn2c1=O (single isomer, unassigned) [Example 30] | 0.22 nM | 64 nM | – | – | – | – | – |
| Cc1c(-c2c(C#N)cc(C(N)=O)c3[nH]c4cc(C(C)(C)O)ccc4c23)cccc1-n1c(=O)c2cccc(F)c2n(C)c1=O (single isomer, unassigned) [Example 16] | 0.27 nM | – | 1900 nM | 120 nM | – | – | – |
| Cc1c(-c2c(Cl)cc(C(N)=O)c3[nH]c4cc(C(C)(C)O)ccc4c23)cccc1-n1c(=O)cc2c(F)cccn2c1=O (single isomer, unassigned) [Example 35] | 0.25 nM | 31 nM | 800 nM | – | 3200 | – | – |
| COc1ccc2c(=O)n(-c3cccc(-c4c(Cl)cc(C(N)=O)c5[nH]c6cc(C(C)(C)O)ccc6c45)c3C)c(=O)n(C)c2c1 (single isomer, unassigned) [Example 5] | 2.1 nM | 170 nM | > 2000 nM | – | >950 | – | – |
| Cc1c(-c2c(F)cc(C(N)=O)c3[nH]c4c(c23)CC[C@H](C(C)(C)O)C4)cccc1-n1c(=O)cc2c(F)cccn2c1=O (single isomer, unassigned) [Example 68] | 0.56 nM | – | 350 nM | – | 630 | – | – |
| [2H]C([2H])([2H])n1c(=O)n(-c2cccc(-c3c(F)cc(C(N)=O)c4[nH]c5c(c34)CC[C@H](C(C)(C)O)C5)c2C)c(=O)c2cccc(F)c21 (single isomer, unassigned) [Example 62] | 0.41 nM | – | > 2000 nM | – | >4900 | – | – |
| Cc1c(-c2c(F)cc(C(N)=O)c3[nH]c4c(c23)CC[C@@H](C(C)(C)O)C4)cccc1-n1c(=O)c2cccc(F)c2n(C)c1=O (atropisomer, axis not shown) [Example 27, 6-Fluoro-5-(R)-(3-(S)-(8-fluoro-1-methyl-2,4-dioxo-1,2-dihydroquinazolin-3(4H)-yl)-2-methylphenyl)-2-(R)-(2-hydroxypropan-2-yl)-2,3,4,9-tetrahydro-1H-carbazole-8-carboxamide] | 2.2 nM | – | > 2000 nM | 150 nM | – | – | – |
| Cc1c(-c2c(Cl)cc(C(N)=O)c3[nH]c4cc(C(C)(C)O)ccc4c23)cccc1-n1c(=O)[nH]c2c(F)cccc2c1=O (single isomer, unassigned) [Example 14] | 1.2 nM | 20 nM | – | – | – | – | – |
| COc1cccn2c(=O)n(-c3cccc(-c4c(Cl)cc(C(N)=O)c5[nH]c6cc(C(C)(C)O)ccc6c45)c3C)c(=O)cc12 [Example 37, 3-Chloro-7-(2-hydroxypropan-2-yl)-4-(3-(5-methoxy-1,3-dioxo-1H-pyrido[1,2-c]pyrimidin-2(3H)-yl)-2-methylphenyl)-9H-carbazole-1-carboxamide] | 0.91 nM | – | 630 nM | – | 690 | – | – |
| Cc1c(-c2c(Cl)cc(C(N)=O)c3[nH]c4cc(C(C)(C)O)ccc4c23)cccc1-n1c(=O)cc2sccn2c1=O (single isomer, unassigned) [Example 38] | 0.34 nM | – | 300 nM | 53 nM | 880 | – | – |
| Cc1c(-c2c(Cl)cc(C(N)=O)c3[nH]c4cc(C(C)(C)O)ccc4c23)cccc1-n1c(=O)cc2c(F)cccn2c1=O (single isomer, unassigned) [Example 36] | 0.28 nM | – | 450 nM | 28 nM | 1600 | – | – |
| Cc1c(-c2c(F)cc(C(N)=O)c3[nH]c4cc(C(C)(C)O)ccc4c23)cccc1-n1c(=O)cc2c(Cl)cccn2c1=O (single isomer, unassigned) [Example 31] | 0.19 nM | – | – | 37 nM | – | – | – |
| Cc1nc(C(N)=O)c2[nH]c3cc(C(C)(C)O)ccc3c2c1-c1cccc(-n2cnc3ccccc3c2=O)c1C [Comparative Example 76, 7-(2-Hydroxypropan-2-yl)-3-methyl-4-(2-methyl-3-(4-oxoquinazolin-3(4H)-yl)phenyl)-9H-pyrido[3,4-b]indole-1-carboxamide, reference compound] | 6.9 nM | – | 200 nM | – | 29 | 29 | 6.9 nM |
| Cc1c(-c2c(F)cc(C(N)=O)c3[nH]c4cc(C(C)(C)O)ccc4c23)cccc1-n1c(=O)cc2c(F)cccn2c1=O (single isomer, unassigned) [Example 41] | 0.2 nM | – | 800 nM | 22 nM | 4000 | – | – |
| Cc1c(-c2c(Cl)cc(C(N)=O)c3[nH]c4cc(C(C)(C)O)ccc4c23)cccc1-n1c(=O)cc2sccn2c1=O (single isomer, unassigned) [Example 39] | 0.31 nM | – | 370 nM | 130 nM | 1200 | – | – |
| Cc1c(-c2c(F)cc(C(N)=O)c3[nH]c4c(c23)CC[C@H](C(C)(C)O)C4)cccc1-n1c(=O)[nH]c2c(Cl)cccc2c1=O (single isomer, unassigned) [Example 63] | 0.45 nM | – | 11000 nM | – | 24000 | – | – |
| Cc1c(-c2c(F)cc(C(N)=O)c3[nH]c4c(c23)CC[C@H](C(C)(C)O)C4)cccc1-n1c(=O)c2cccc(F)c2n(C)c1=O (atropisomer, axis not shown) [Example 28, 6-Fluoro-5-(R)-(3-(S)-(8-fluoro-1-methyl-2,4-dioxo-1,2-dihydroquinazolin-3(4H)-yl)-2-methylphenyl)-2-(S)-(2-hydroxypropan-2-yl)-2,3,4,9-tetrahydro-1H-carbazole-8-carboxamide] | 0.54 nM | – | 32000 nM | – | 59000 | – | – |
| Cc1c(-c2c(F)cc(C(N)=O)c3[nH]c4c(c23)CC[C@H](C(C)(C)O)C4)cccc1-n1c(=O)cc2c(F)cccn2c1=O (single isomer, unassigned) [Example 69] | 0.84 nM | – | 9500 nM | 150 nM | 11000 | – | – |
| Cc1c(-c2c(Cl)cc(C(N)=O)c3[nH]c4cc(C(C)(C)O)ccc4c23)cccc1-n1c(=O)[nH]c2c(F)cccc2c1=O [Example 13, 3-Chloro-4-(3-(8-fluoro-2,4-dioxo-1,2-dihydroquinazolin-3(4H)-yl)-2-methylphenyl)-7-(2-hydroxypropan-2-yl)-9H-carbazole-1-carboxamide] | 2.9 nM | 140 nM | – | – | – | – | – |
| Cc1c(-c2c(Cl)cc(C(N)=O)c3[nH]c4cc(C(C)(C)O)ccc4c23)cccc1-n1c(=O)cc2c(F)cccn2c1=O [Example 34, 3-Chloro-4-(3-(5-fluoro-1,3-dioxo-1H-pyrido[1,2-c]pyrimidin-2(3H)-yl)-2-methylphenyl)-7-(2-hydroxypropan-2-yl)-9H-carbazole-1-carboxamide] | 0.85 nM | 98 nM | 370 nM | – | 440 | – | – |
| Cc1c(-c2c(F)cc(C(N)=O)c3[nH]c4cc(CCO)ccc4c23)cccc1-n1c(=O)cc2c(F)cccn2c1=O [Example 70] | 0.59 nM | – | 550 nM | – | 930 | – | – |
| Cc1c(-c2c(C#N)cc(C(N)=O)c3[nH]c4cc(C(C)(C)O)ccc4c23)cccc1-n1c(=O)c2cccc(F)c2n(C)c1=O (single isomer, unassigned) [Example 15] | 1 nM | 170 nM | 2400 nM | – | 2400 | – | – |
| COc1ccc2c(=O)n(-c3cccc(-c4c(Cl)cc(C(N)=O)c5[nH]c6cc(C(C)(C)O)ccc6c45)c3C)c(=O)n(C)c2c1 (single isomer, unassigned) [Example 6] | 1.1 nM | – | 1500 nM | 100 nM | 1400 | – | – |
| Cc1c(-c2c(F)cc(C(N)=O)c3[nH]c4cc(C(C)(C)O)ccc4c23)cccc1-n1c(=O)cc2c(F)cccn2c1=O (single isomer, unassigned) [Example 40] | 0.46 nM | 19 nM | 830 nM | – | 1800 | – | – |
